In one series the test system is MDA-MB-231. Kind of series: Cytotoxicity against ERalpha and ERbeta-deficient human MDA-MB-231 cells assessed as growth inhibition after 72 hrs by MTT assay. Format: functional, cell-based. The following applies: MDA-MB-231, 72 h. (In general: Formazan colour is commonly taken as a measure of viable cells.)
Series [1] relates to MCF7. Kind of series: Cytotoxicity against human MCF7 cells expressing ERalpha and ERbeta assessed as growth inhibition after 72 hrs by MTT assay. The class given is functional, cell-based. The note with it: MCF7, 72 h.
Series [2] deals with T1, Protein deacetylase HDAC6 (Homo sapiens, UniProt Q9UBN7).
T1 sequence (Q9UBN7 whole entry): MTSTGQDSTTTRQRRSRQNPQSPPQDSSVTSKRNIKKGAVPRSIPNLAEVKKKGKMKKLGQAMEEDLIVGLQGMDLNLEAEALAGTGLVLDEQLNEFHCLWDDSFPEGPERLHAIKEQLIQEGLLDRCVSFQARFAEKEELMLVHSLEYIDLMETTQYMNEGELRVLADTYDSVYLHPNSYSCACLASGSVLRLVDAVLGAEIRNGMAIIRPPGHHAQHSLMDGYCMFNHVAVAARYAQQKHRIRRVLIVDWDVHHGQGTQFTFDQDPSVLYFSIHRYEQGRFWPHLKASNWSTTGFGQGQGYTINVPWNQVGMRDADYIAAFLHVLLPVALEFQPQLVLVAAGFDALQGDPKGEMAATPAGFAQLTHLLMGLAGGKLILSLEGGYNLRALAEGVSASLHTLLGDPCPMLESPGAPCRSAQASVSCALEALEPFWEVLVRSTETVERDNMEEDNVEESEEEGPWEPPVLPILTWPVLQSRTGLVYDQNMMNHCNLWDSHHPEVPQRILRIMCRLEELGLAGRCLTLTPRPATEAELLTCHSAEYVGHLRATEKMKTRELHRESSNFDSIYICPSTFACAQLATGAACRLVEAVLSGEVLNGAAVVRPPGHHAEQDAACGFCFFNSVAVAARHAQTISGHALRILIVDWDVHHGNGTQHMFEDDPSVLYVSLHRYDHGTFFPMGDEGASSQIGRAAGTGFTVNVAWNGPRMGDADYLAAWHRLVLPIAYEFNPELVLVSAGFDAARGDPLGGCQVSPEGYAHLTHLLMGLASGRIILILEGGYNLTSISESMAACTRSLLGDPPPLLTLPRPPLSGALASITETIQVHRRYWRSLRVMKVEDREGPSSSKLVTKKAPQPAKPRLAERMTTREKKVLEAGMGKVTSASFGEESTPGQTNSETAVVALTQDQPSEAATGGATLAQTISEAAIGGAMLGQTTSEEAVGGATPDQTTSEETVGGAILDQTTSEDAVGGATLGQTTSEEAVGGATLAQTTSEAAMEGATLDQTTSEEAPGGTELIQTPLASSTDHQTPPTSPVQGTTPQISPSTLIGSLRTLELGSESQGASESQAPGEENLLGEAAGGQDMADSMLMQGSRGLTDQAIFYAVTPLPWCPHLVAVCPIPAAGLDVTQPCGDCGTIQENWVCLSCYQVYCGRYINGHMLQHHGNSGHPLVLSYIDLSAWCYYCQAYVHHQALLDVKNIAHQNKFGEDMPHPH
In words: Inhibition of human recombinant HDAC6 after 30 mins by fluorescence assay.

In another series the target is Histone deacetylase 1 (Homo sapiens, UniProt Q13547). Kind of series: Inhibition of human recombinant HDAC1 after 30 mins by fluorescence assay.
The target of a further series is T2, Estrogen receptor (Homo sapiens, UniProt P03372).
T2 sequence (P03372 whole entry): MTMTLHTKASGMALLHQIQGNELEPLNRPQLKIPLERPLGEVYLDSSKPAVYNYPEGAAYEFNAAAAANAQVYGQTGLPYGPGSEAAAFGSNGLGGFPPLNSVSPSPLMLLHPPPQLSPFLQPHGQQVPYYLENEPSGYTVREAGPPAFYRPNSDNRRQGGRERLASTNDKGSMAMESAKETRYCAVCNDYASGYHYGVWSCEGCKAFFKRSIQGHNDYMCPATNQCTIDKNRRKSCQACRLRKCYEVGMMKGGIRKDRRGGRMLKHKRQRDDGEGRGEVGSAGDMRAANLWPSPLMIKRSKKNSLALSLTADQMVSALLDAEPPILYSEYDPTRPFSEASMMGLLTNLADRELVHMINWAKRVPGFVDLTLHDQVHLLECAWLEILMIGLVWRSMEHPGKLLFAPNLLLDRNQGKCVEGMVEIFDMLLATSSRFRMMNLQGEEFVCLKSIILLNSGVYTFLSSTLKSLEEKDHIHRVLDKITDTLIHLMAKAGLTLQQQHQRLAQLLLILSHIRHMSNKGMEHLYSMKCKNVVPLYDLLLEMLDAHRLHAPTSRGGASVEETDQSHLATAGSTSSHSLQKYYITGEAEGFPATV
In words: Antagonist activity at Gal4 DBD-fused human ERalpha LBD expressed in HEK293T cells assessed as inhibition of estradiol-induced transcriptional activation after 20 hrs by luciferase reporter gene assay. The class given is cell-based, HEK-293T. A general note: In a reporter assay the amount or activity of a reporter protein is the signal.

A short description of series [3]: Therapeutic index, ratio of IC50 for african green monkey Vero cells to IC50 for human MCF7 cells expressing ERalpha and ERbeta. The following applies: Vero cells versus MCF7 cells expressing ERalpha and ERbeta.
The next series deals with Vero. In words: Cytotoxicity against african green monkey Vero cells assessed as growth inhibition after 72 hrs by MTT assay. The class given is ADME, cell-based. The following applies: Chlorocebus sabaeus.
Series [4] deals with MCF7. Kind of series: Ratio of tamoxifen IC50 to compound IC50 for human MCF7 cells expressing ERalpha and ERbeta. The class given is functional.
In another series the test system is DU-145. In words: Cytotoxicity against ERalpha-deficient human DU145 cells expressing ERbeta assessed as growth inhibition after 72 hrs by MTT assay. The note with it: DU-145, 72 h. The class given is functional, cell-based.
Series [5] deals with Estrogen receptor beta (Homo sapiens) (UniProt Q92731). Kind of series: Agonist activity at Gal4 DBD-fused human ERbeta LBD expressed in HEK293T cells at 10 uM after 40 hrs by luciferase reporter gene assay. Format: cell-based. The note with it: HEK-293T.
The target of another series is T3, Histone deacetylase 8 (Homo sapiens, UniProt Q9BY41).
T3 sequence (Q9BY41 whole entry): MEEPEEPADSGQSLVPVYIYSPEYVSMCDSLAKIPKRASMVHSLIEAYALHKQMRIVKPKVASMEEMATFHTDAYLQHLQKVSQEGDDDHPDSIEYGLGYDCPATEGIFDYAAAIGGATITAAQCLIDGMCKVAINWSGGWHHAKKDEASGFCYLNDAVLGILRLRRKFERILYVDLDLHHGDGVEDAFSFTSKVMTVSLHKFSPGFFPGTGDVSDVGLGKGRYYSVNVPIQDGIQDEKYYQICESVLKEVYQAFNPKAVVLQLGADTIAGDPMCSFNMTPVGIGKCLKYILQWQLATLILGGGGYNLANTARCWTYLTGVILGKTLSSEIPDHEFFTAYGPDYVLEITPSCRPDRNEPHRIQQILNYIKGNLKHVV
In words: Inhibition of human recombinant HDAC8 after 30 mins by fluorescence assay.

Calls of active or inactive are those of the source. No cut-off for these calls is given here.

Histone deacetylase 1, sequence (Q13547 whole entry): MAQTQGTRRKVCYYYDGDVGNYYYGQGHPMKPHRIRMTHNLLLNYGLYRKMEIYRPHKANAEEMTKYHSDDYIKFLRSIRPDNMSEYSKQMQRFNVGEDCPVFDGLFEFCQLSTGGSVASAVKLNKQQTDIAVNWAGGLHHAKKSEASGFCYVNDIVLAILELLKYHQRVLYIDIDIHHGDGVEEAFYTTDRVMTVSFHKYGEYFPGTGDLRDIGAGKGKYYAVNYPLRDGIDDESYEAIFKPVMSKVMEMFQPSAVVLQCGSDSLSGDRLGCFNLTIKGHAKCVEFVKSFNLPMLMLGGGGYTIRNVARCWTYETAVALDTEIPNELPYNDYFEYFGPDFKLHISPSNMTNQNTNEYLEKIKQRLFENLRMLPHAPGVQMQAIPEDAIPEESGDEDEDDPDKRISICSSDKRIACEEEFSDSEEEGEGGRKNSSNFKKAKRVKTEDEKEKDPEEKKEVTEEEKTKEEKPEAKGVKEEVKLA
Estrogen receptor beta (Homo sapiens), sequence (Q92731 whole entry, the tested form may be a part): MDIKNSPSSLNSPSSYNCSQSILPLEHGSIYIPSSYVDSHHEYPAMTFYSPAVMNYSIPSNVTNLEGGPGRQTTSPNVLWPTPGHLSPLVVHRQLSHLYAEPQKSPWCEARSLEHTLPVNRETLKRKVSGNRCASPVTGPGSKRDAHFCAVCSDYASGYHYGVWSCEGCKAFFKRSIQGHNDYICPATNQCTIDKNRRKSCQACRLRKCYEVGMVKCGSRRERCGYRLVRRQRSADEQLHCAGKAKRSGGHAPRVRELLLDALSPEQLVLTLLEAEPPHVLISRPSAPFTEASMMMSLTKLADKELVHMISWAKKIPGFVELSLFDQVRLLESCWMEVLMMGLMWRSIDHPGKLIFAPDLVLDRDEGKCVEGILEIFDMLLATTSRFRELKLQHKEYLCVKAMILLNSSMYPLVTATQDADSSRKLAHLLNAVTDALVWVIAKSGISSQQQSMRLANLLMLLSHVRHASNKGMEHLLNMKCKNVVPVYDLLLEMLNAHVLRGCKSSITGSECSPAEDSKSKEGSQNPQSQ

The IC50 is the point on the concentration scale where inhibition reaches its midpoint. For `CC/C(=C(\c1ccccc1)c1ccc(OCCN(C)Cc2ccc(-c3cn(CCCCCC(=O)NO)nn3)cc2)cc1)c1ccccc1`, the IC50 in the series with MDA-MB-231 came out at 10 µM; with MCF7 [1], 7.2 µM; in series [2] it was 0.567 µM; at Histone deacetylase 1, 0.524 µM; at Estrogen receptor, 0.248 µM; in the series with Vero it was 9.1 µM. Moreover, the IC50 in the series on DU-145 came to 20.6 µM. Further, the selectivity ratio in [3] amounted to 1.26. Also, the “Ratio IC50” value in the series with MCF7 [4] came to 2.

Regarding `CC/C(=C(\c1ccccc1)c1ccc(OCCN(C)C)cc1)c1ccccc1` [TAMOXIFEN], the IC50 worked out at 17 µM in the series on MDA-MB-231, 15.6 µM with MCF7 [1] and 15.9 µM with Vero.

Turning to `C[C@]12CC[C@@H]3c4ccc(O)cc4CC[C@H]3[C@@H]1CC[C@@]2(O)c1cn(CCCCCCCC(=O)NO)nn1`, the IC50 was 33.9 µM in the series with MDA-MB-231, 20 µM at Histone deacetylase 8, 1.3 µM in [2] and 9 µM at Histone deacetylase 1. In series [5], the outcome was Active.

`C[C@]12CC[C@@H]3c4ccc(O)cc4CC[C@H]3[C@@H]1CC[C@@]2(O)c1cn(CCCCCC(=O)NO)nn1`: the IC50 amounted to 22.6 µM in the series on MDA-MB-231; 4 µM at Histone deacetylase 8; 0.032 µM in series [2]; 0.075 µM at Histone deacetylase 1; 26.9 µM with DU-145. Also, in [5], the result was Active.

Consider `CC(O)(CS(=O)(=O)c1ccc(F)cc1)C(=O)Nc1ccc(C#N)c(C(F)(F)F)c1` (configuration not stated) [BICALUTAMIDE], for which, in the series on DU-145, the IC50 amounted to 18 µM.

On to `C[C@]12CC[C@@H]3c4ccc(O)cc4CC[C@H]3[C@@H]1CC[C@@]2(O)c1cn(CCCC(=O)NO)nn1`, for which the IC50 with MDA-MB-231 was determined as 28.4 µM; in the series with MCF7 [1], 22 µM; at Histone deacetylase 8 it was 11 µM; in series [2], 0.008 µM; at Histone deacetylase 1, 0.015 µM. Further, in [5], the outcome was Active. Moreover, the selectivity ratio in [3] was greater than 1.82.

Turning to `CC/C(=C(\c1ccccc1)c1ccc(OCCN(C)Cc2ccc(NC(=O)CCCCCCC(=O)NO)cc2)cc1)c1ccccc1`, the IC50 with MDA-MB-231 is 8.1 µM; with MCF7 [1], 3.8 µM; in series [2] it was 0.221 µM; on Histone deacetylase 1 it was 2.7 µM; on Estrogen receptor, 0.127 µM; in the series on Vero, 3.6 µM. Besides, the IC50 in the series on DU-145 came out at 14.1 µM. Besides, the selectivity ratio in [3] was found to be 0.95. Also, the “Ratio IC50” value in the series with MCF7 [4] was 4.

With `C[C@]12CC[C@@H]3c4ccc(O)cc4CC[C@H]3[C@@H]1CC[C@@]2(O)c1cn(CCCCCCC(=O)NO)nn1`, the IC50 with MDA-MB-231 worked out at 14.1 µM; with MCF7 [1], 37.3 µM; on Histone deacetylase 8, 0.45 µM; in series [2], 0.013 µM; on Histone deacetylase 1 it was 0.028 µM; in the series with DU-145 it was 27 µM. The outcome in [5] was Active.

For `C[C@]12CC[C@@H]3c4ccc(O)cc4CC[C@H]3[C@@H]1CC[C@@]2(O)c1cn(CCCCC(=O)NO)nn1`, the outcome in [5] was Active. Further, the IC50 on Histone deacetylase 8 was determined as 5 µM; in series [2] it was 0.14 µM; on Histone deacetylase 1 it was 0.4 µM.

For `C#C[C@]1(O)CC[C@H]2[C@@H]3CCc4cc(O)ccc4[C@H]3CC[C@@]21C` [ETHINYL ESTRADIOL], in the series on MDA-MB-231, the IC50 is 32.9 µM.

For the origin of these results see ChEMBL document CHEMBL2401729, “Histone deacetylase inhibitors equipped with estrogen receptor modulation activity” (J Med Chem, 2013).
